Measured values published in ChEMBL document CHEMBL1201862, “PubChem BioAssay data set” (2004).
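Where inhibition never reached the appropriate level, the endpoint shown equals the highest concentration tested. Otherwise, values were interpolated linearly from a five-concentration, 48-hour dose response in 96-well plates. Abbreviation: GI50, concentration required for 50% inhibition of growth.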 Active and inactive are the calls of the source. Cut-off read from the data, not from the text of the source: active = GI50 up to about 1.1 µM and inactive = higher.

Key:
Experiment in all cases: growth of human tumour cells (NCI), 48 h
786-0 = tested on: 786-0
DLD-1 = tested on: DLD-1
DMS-114 = tested on: DMS-114
DU-145 = tested on: DU-145
HCT-15 = tested on: HCT-15
HT-29 = tested on: HT-29
MDA-MB-231 = tested on: MDA-MB-231
MDA-MB-435 = tested on: MDA-MB-435
MOLT-4 = tested on: MOLT-4
NCI-H226 = tested on: NCI-H226
NCI/ADR-RES = tested on: NCI/ADR-RES
OVCAR-4 = tested on: OVCAR-4
RXF 393 = tested on: RXF 393
SF-539 = tested on: SF-539
SNB-19 = tested on: SNB-19
SNB-75 = tested on: SNB-75
SR = tested on: SR
CAKI-1 = tested on: CAKI-1
CCRF-CEM = tested on: CCRF-CEM
HOP-62 = tested on: HOP-62

Row | SMILES | GI50 (786-0) | GI50 (DLD-1) | GI50 (DMS-114) | GI50 (DU-145) | GI50 (HCT-15) | GI50 (HT-29) | GI50 (MDA-MB-231) | GI50 (MDA-MB-435) | GI50 (MOLT-4) | GI50 (NCI-H226) | GI50 (NCI/ADR-RES) | GI50 (OVCAR-4) | GI50 (RXF 393) | GI50 (SF-539) | GI50 (SNB-19) | GI50 (SNB-75) | GI50 (SR) | GI50 (CAKI-1) | GI50 (CCRF-CEM) | GI50 (HOP-62)
1 | COc1cccc2c1[C@H]1CO[C@H]3C4C[C@H](C(=O)O)C([C@@H](C2)N13)N4C (stereo partly drawn) | 1.3 µM (inactive) | 2.84 µM (inactive) | 2.22 µM (inactive) | 0.0423 µM (active) | 1.67 µM | 2.13 µM (inactive) | 0.205 µM (active) | 0.0533 µM (active) | 1.69 µM (inactive) | 1.29 µM (inactive) | 0.764 µM (active) | 5 µM (inactive) | 1.19 µM (inactive) | 1.56 µM (inactive) | 2.91 µM (inactive) | 1.48 µM (inactive) | 1.14 µM (inactive) | – | – | –
2 | CC(=O)[C@@]1(O)CC[C@H]2[C@@H]3C[C@H](C)C4=CC(=O)C=C[C@]4(C)[C@@]3(F)[C@@H](O)C[C@@]21C [FLUOROMETHOLONE] | > 100 µM (inactive) | > 100 µM (inactive) | > 100 µM (inactive) | > 51.4 µM (inactive) | > 100 µM | > 100 µM (inactive) | > 91 µM (inactive) | > 100 µM (inactive) | > 100 µM (inactive) | > 11.3 µM (inactive) | > 100 µM (inactive) | > 100 µM (inactive) | > 91.4 µM (inactive) | > 87.3 µM (inactive) | > 100 µM (inactive) | 69.5 µM (inactive) | > 100 µM (inactive) | > 100 µM (inactive) | 1.8 µM (inactive) | > 100 µM (inactive)
3 | C/C(=N\NC(=[Se])N(C)C)c1ccccn1 | 0.0559 µM (active) | < 0.01 µM (active) | < 0.01 µM (active) | 1.41 µM (inactive) | 0.0352 µM | < 0.01 µM (active) | 0.0131 µM (active) | 1.11 µM (active) | < 0.01 µM (active) | 0.0973 µM (active) | < 0.01 µM (active) | 0.103 µM (active) | 0.455 µM (active) | 0.577 µM (active) | 1.37 µM (inactive) | 0.462 µM (active) | < 0.01 µM (active) | 0.188 µM (active) | < 0.01 µM (active) | < 0.01 µM (active)
4 | COC1CC(OS(=O)(=O)c2ccc(C)cc2)C(OS(=O)(=O)c2ccc(C)cc2)C(COS(=O)(=O)c2ccc(C)cc2)O1 (stereo not drawn) | 1.6 µM (inactive) | 8.75 µM (inactive) | 2.92 µM (inactive) | – | 5.35 µM | 3.31 µM (inactive) | – | – | > 100 µM (inactive) | 3.23 µM (inactive) | – | 0.336 µM (active) | 1.71 µM (inactive) | 1.88 µM (inactive) | 2.22 µM (inactive) | 0.535 µM (active) | 6.12 µM (inactive) | 2.72 µM (inactive) | 74.3 µM (inactive) | 2.18 µM (inactive)
5 | [N-]=[N+]=CC(=O)CCC(N)C(=O)O (stereo not drawn) | 2.14 µM (inactive) | 1.02 µM (active) | 1.87 µM (inactive) | 1.75 µM (inactive) | 0.815 µM | 0.385 µM (active) | 8.63 µM (inactive) | 1.75 µM (inactive) | 0.721 µM (active) | 39.6 µM (inactive) | 8.38 µM (inactive) | 29.9 µM (inactive) | 8.18 µM (inactive) | 0.482 µM (active) | 8.71 µM (inactive) | 23.1 µM (inactive) | 0.809 µM (active) | 3.8 µM (inactive) | 0.676 µM (active) | 1.31 µM (inactive)
6 | CCN(CC)CCCC(C)Nc1ccnc2cc(Cl)ccc12 (stereo not drawn) [CHLOROQUINE PHOSPHATE] | 11.7 µM (inactive) | > 100 µM (inactive) | 24.3 µM (inactive) | 7.94 µM (inactive) | 24.9 µM | 17.5 µM (inactive) | 15.8 µM (inactive) | 16.4 µM (inactive) | 15.2 µM (inactive) | – | 42.1 µM (inactive) | 51.3 µM (inactive) | 2.4 µM (inactive) | 16.6 µM (inactive) | > 76.4 µM (inactive) | > 60.5 µM (inactive) | 13.6 µM (inactive) | 20.8 µM (inactive) | 20.8 µM (inactive) | 34.4 µM (inactive)
7 | COc1cc2c(oc(=O)c3cc4cc([Si](C)(C)C)oc4c(OC)c32)c2cccc(O)c12 | > 100 µM (inactive) | > 100 µM (inactive) | > 100 µM (inactive) | – | > 100 µM | > 100 µM (inactive) | – | – | > 100 µM (inactive) | > 100 µM (inactive) | – | > 100 µM (inactive) | > 100 µM (inactive) | > 100 µM (inactive) | > 100 µM (inactive) | > 100 µM (inactive) | > 100 µM (inactive) | > 100 µM (inactive) | > 100 µM (inactive) | > 100 µM (inactive)
8 | O=C(/C=C/c1ccccc1)CCN1CCOCC1 | 6.85 µM (inactive) | 9.29 µM (inactive) | 9.25 µM (inactive) | 18.8 µM (inactive) | 8.57 µM | 13.6 µM (inactive) | 16.6 µM (inactive) | 15 µM (inactive) | 4.28 µM (inactive) | 20.8 µM (inactive) | 21.6 µM (inactive) | 20.9 µM (inactive) | 12.7 µM (inactive) | 12.1 µM (inactive) | 23.8 µM (inactive) | 23.4 µM (inactive) | 2.06 µM (inactive) | 8.39 µM (inactive) | 1.82 µM (inactive) | 27.3 µM (inactive)
